These results are taken from patent US11752099B2, “Injectable and biodegradable polymer formulations for controlled release of bioactive agents” (W. L. Gore & Associates, Inc., priority 2017, dated 2023).

The data set deals with eyes of an animal subject. The following applies: in vivo. The protocol:
The copolymer PLA:GA Resomer® RG 756 S, Poly(D,L-lactide-co-glycolide) purchased from Evonik Industries, Germany, was dissolved in 11 g of triacetin (Sigma-Aldrich, St. Louis) in 25 ml glass vials to obtain approximately a 6% solution by maintaining the mixture on a stir plate with a magnetic stir bar. The molecular weight was 76,000 for the PLGA polymer. The solution was processed aseptically through a 0.2 μm sterile filter into 1 ml syringes. Each syringe contained approximately 200 μl of formulation.
The polymer formulations were delivered into the eyes of an animal subject and each eye only received a single injection. […] The in-life period of the polymer formulation injections was approximately 90 days. Approximately every week the intraocular pressure (IOP) was measured.
At retrieval, the eyes were examined and inter ocular pressure (IOP) was obtained. The eyes were gently removed, examined, and fixed in Davidson's Solution for a minimum of 24 hours. Post fixation, the eyes were processed for histological analyses.
The tissue samples were processed to yield histological slides and were examined under microscope for inflammation. […]

For D/L-PLA:TMC:PGA [Example 17], the IOP immediately post-op entry is reported as “much higher than the baseline”; the “average normalized IOP values, relative to baseline before implantation (FIG. 10)” value is listed as not above 100%; the “inflammation on histological slides” value was “no inflammation was noted”; the “time for immediate rise in IOP to return to normal values” is not above 30 min. Further, the “visual examination of the eyes at retrieval” value is listed as “no abnormalities observed” and the “visual inspection with an ophthalmoscope (redness of the retina)” value is given as “no redness of the retina”.

With “Poly(D,L-lactide-co-glycolide) [Resomer® RG 756 S, reference compound]”, the IOP immediately post-op entry is listed as “much higher than the baseline”; the “average normalized IOP values, relative to baseline before implantation (FIG. 10)” value is listed as “above 100%”; the “inflammation on histological slides” value is listed as “revealed inflammation”; the “time for immediate rise in IOP to return to normal values” is given as not above 30 min. Moreover, the “visual inspection with an ophthalmoscope (redness of the retina)” value is “redness of the retina, a sign of inflammation, in one observation”.
